Experiments:
Botrytis cinerea [1] = test: in vitro inhibition assay for volatile antimicrobial compounds (12-well PDA plates); assay type: cell-based; details: in vitro; volatile; 14 days at 4° C.
Description: 12-Well (7 milliliter (mL volume per well) microtiter plates are used for the in vitro inhibition assay for volatile antimicrobial compounds. A 3-mL volume of full-strength Potato Dextrose Agar (PDA) is added to each well. After cooling, 1 microliter (μL) of 1×10^6 per mL Botrytis cinerea spore suspension is spot pipetted to the center of the agar. For the first experiment, inoculated plates are allowed to germinate for 5 days at 4° C. For the second experiment, plates are inoculated immediately prior to volatile fungicide treatment. Small Whatman #1 filter disks (Cat. No. 1001-0155) are placed, in duplicate, on the underside of a polyethylene PCR plate sealing film.
The acetone is permitted to evaporate for 5 minutes. The headspace around the Botrytis cinerea inoculum is then sealed inside the well by the film with the adhering disk containing the fungicide. Plates are inverted, placed over the treated disks and sealed to prevent any of the chemical from flaking from the disk and falling onto the inoculated agar. After 14 days of storage at 4° C., cultures are evaluated for percent growth relative to control. Regardless of whether the spores had germinated for 5 days, or if the treatment commenced soon after inoculation of the plates (˜15 minutes); there is 100% control of the fungal pathogen down to 0.005 mg.
A total of 14 antimicrobial compounds are tested using the in vitro inhibition assay described in Example 1. All 14 compounds are applied to the Whatman disks, in duplicate, in a dose dependent manner (0.31 to 0.0006 mg/disk). […] Other compounds, such as Compound C, Compound D, and Compound E conferred 100% control down to 0.023, 0.04, and 0.08 mg/disk, respectively. Results of nine compounds are summarized in Table 2, where the other five compounds show no detected activity in the ranges tested. […]

Botrytis cinerea [2] = test: in vivo volatile bioassay using strawberry
Description: In order to assess the in vivo activity of volatile antimicrobial compounds, a volatile bioassay is developed using strawberry. Two fruit are placed inside a 240 mL jar, with the calyx facing downwards. […] The acetone is permitted to evaporate for 5 minutes. The jars are then capped with the lids containing the fungicide, and placed for 5 days at 21° C. After storage, fruit are evaluated for incidence and severity of disease and appearance of phytotoxicity.

Penicillium digitatum [3] = test: in vivo volatile bioassay using orange (Compound B, sublimation); details: for Sporulation (mm) / Water soaked lesions (mm): oranges
Description: Two oranges per replicate are placed inside a clamshell. Three fresh wounds per orange are inoculated with 30 μL of 1×10^6 per mL Penicillium digitatum spore suspension. The clamshells are placed inside a 10.8-cup SnapWare airtight container (Model #109842). […] After storage, fruits are evaluated for disease incidence (mm diameter of the rot) and pathogen sporulation (mm diameter) on the surface of the fruits for an additional three days at 21° C., with results summarized in Table 20.

Botrytis cinerea [4] = test: in vivo sublimation bioassay on fruit, 1 mg/L (Example 31); details: for Incidence (%) / Severity (0-4): 1 mg/L sublimed, three day treatment plus three days at 21° C.
Description: (§1) To assess the in vivo activity of volatile antimicrobial Compounds A and B (FIG. 1) in fruit, a volatile bioassay is developed using apple, pear, orange, strawberry, grape and blueberry.
(§2) Two apples, 2 oranges, 2 pears, 8 strawberries, 16 grapes or 30 blueberries (per replicate, in duplicate) are placed in a clamshell with the stem end facing up for all fruits except for strawberry (stem end facing downwards). A fresh wound is inoculated with 20 μL 1×10^6 per mL Penicillium expansum spore suspension (apple and pear), 20 μL 1×10^6 per mL Penicillium digitatum spore suspension (orange), and 20 μL (strawberry and grape) or 10 μL (blueberry) of 1×10^6 per mL Botrytis cinerea spore suspension. The clamshells are placed inside a 117 L Rubbermaid storage box (Cat #2244) with lids closed. […] After treatment, fruits are held for an additional three days at 21° C., then evaluated for disease incidence (mm diameter of browning or water-soaked lesions) and pathogen sporulation (mm diameter) for apple, pear and orange, as well as Botrytis cinerea disease incidence (%) and severity (0 to 4) for strawberry, grape and blueberry, with results summarized in Table 30.

Penicillium digitatum [5] = test: as above
Description: as §1, §2

Penicillium expansum = test: as above; details: 1 mg/L sublimed, three day treatment plus three days at 21° C.
Description: as §1, §2

Botrytis cinerea [6] = test: combination treatment with 1-MCP on white roses; assay type: in vivo; details: 1-MCP 500 ppb v/v for 24 hours, no Compound A
Description: To evaluate a combination treatment of Compound A with 1-methylcyclopropene (1-MCP), an in vivo experiment is performed on white roses.
Five white roses are placed in an 800 mL jar containing 200 mL of a common commercial flower preservative. Three jars are then placed in a 117 L Rubbermaid storage box (Cat #2244). Two small fans are placed in opposite ends of the container to assist with the distribution of the two volatiles. A 500 parts per billion (ppb) volume per volume (v/v) 1-MCP treatment is applied (AgroFresh, Springhouse, Pa.) for 24 hours at 21° C. After the 1-MCP treatment is completed, the containers are vented, and Compound A powder is applied in a dose dependent manner to achieve a final headspace concentration of 0.2, 0.04, or 0.008 mg/L with a sublimation device (copper tube heated to 200° C. with fan flow at 0.5 L/min), with the end of the tube penetrating through a ½ inch side port in the container that is sealed immediately after the application. The flowers are incubated for three days at 21° C. After treatment, the flowers are evaluated for an additional seven days at 21° C. for disease incidence and severity of the flower petals.

Alternaria alternata [7] = test: combination treatment with 1-MCP on broccoli; assay type: in vivo; design: scale not given here; details: 1-MCP alone, 21° C.
Description: To evaluate a combination treatment of Compound A with 1-methylcyclopropene (1-MCP), an in vivo experiment is performed on broccoli.
Broccoli flowers are inoculated with 1×10^6 spores/mL of Alternaria alternata and then placed in a 117 L Rubbermaid storage box (Cat #2244) with two small fans placed in opposite ends of the container. A 500 ppb v/v 1-MCP treatment is applied (AgroFresh, Springhouse, Pa.) for 24 hours at 1° C. After completion of the 1-MCP treatment, broccoli florets are removed and placed in a 10.8-cup SnapWare airtight container (Model #109842). Compound A powder is applied in a dose dependent manner to achieve a final headspace concentration of 2 or 0.4 mg/L with a sublimation device (copper tube heated to 200° C. with fan flow at 0.5 L/min), with the end of the tube penetrating through a ½ inch side port in the container that is sealed immediately after the application. The florets are incubated for five days at 10° C. or three days at 21° C., then evaluated for an additional five days at 21° C. for disease incidence and severity.

Alternaria alternata [8] = test: combination treatment with 1-MCP on tomato; assay type: in vivo; details: tomatoes; 1-MCP 1000 ppb v/v alone
Description: Each tomato fruit is wounded three times and inoculated with 1×10^6 spores/mL of Alternaria alternata and then placed in a 117 L Rubbermaid storage box (Cat #2244) with two small fans placed in opposite ends of the container. A 1000 ppb v/v 1-MCP treatment is applied (AgroFresh, Springhouse, Pa.) for 24 hours at 21° C. After completion of the 1-MCP treatment, the tomatoes are removed and placed in a 10.8-cup […] airtight container (Model #109842). […] The tomatoes are incubated for three days at 21° C., then evaluated for an additional three days at 21° C. for disease incidence and severity. Results listed in Table 29 show good activity against Alternaria alternata infection of tomato.

Alternaria alternata [9] = test: combination treatment with 1-MCP on broccoli; assay type: in vivo; design: scale not given here; details: 1-MCP alone, 11 C.
[10] = Orange, 1 mg/L sublimed, three day treatment plus three days at 21° C.

SMILES: OB1OCc2ccccc21 [Compound B, 2-(hydroxymethyl)phenylboronic acid cyclic monoester]
- lowest rate with 100% control of Botrytis cinerea (Botrytis cinerea [1]): 0.0078 mg/disk
- Percent (%) Incidence of Botrytis cinerea on Strawberry (in vivo) (Botrytis cinerea [2]; 0.005 mg/disk, 5 days at 21° C.): 100%
- Percent (%) Incidence of Botrytis cinerea on Strawberry (in vivo) (Botrytis cinerea [2]; 0.01 mg/disk, 5 days at 21° C.): 100%
- Percent (%) Incidence of Botrytis cinerea on Strawberry (in vivo) (Botrytis cinerea [2]; 0.02 mg/disk, 5 days at 21° C.): 100%
- Percent (%) Incidence of Botrytis cinerea on Strawberry (in vivo) (Botrytis cinerea [2]; 0.04 mg/disk, 5 days at 21° C.): 75%
- Percent (%) Incidence of Botrytis cinerea on Strawberry (in vivo) (Botrytis cinerea [2]; 0.08 mg/disk, 5 days at 21° C.): 50%
- Percent (%) Incidence of Botrytis cinerea on Strawberry (in vivo) (Botrytis cinerea [2]; 0.16 mg/disk, 5 days at 21° C.): 25%
- Percent (%) Incidence of Botrytis cinerea on Strawberry (in vivo) (Botrytis cinerea [2]; 0.32 mg/disk, 5 days at 21° C.): 0%
- Percent (%) Incidence of Botrytis cinerea on Strawberry (in vivo) (Botrytis cinerea [2]; 0.64 mg/disk, 5 days at 21° C.): 0%
- Percent (%) Incidence of Botrytis cinerea on Strawberry (in vivo) (Botrytis cinerea [2]; 1.25 mg/disk, 5 days at 21° C.): 0%
- Percent (%) Incidence of Botrytis cinerea on Strawberry (in vivo) (Botrytis cinerea [2]; 2.5 mg/disk, 5 days at 21° C.): 0%
- lowest rate with 100% control of Botrytis cinerea (Botrytis cinerea [2]; strawberry, 5 days at 21° C.): 0.32 mg/disk
- appearance of phytotoxicity (Botrytis cinerea [2]; strawberry, any of the rates evaluated (2.5 to 0.005 mg/disk)): no evidence of phytotoxicity
- in vivo volatile inhibition of P. digitatum in orange (Penicillium digitatum [3]; 10 mg/L): complete inhibition
- Sporulation (mm) (Penicillium digitatum [3]; 0.4 mg/L, Day 0): 0.7 mm
- Water soaked lesions (mm) (Penicillium digitatum [3]; 0.4 mg/L, Day 0): 5.7 mm
- Sporulation (mm) (Penicillium digitatum [3]; 0.4 mg/L, Day 1): 1.4 mm
- Water soaked lesions (mm) (Penicillium digitatum [3]; 0.4 mg/L, Day 1): 29.4 mm
- Sporulation (mm) (Penicillium digitatum [3]; 0.4 mg/L, Day 2): 8.1 mm
- Water soaked lesions (mm) (Penicillium digitatum [3]; 0.4 mg/L, Day 2): 49.3 mm
- Sporulation (mm) (Penicillium digitatum [3]; 0.4 mg/L, Day 3): 27.2 mm
- Water soaked lesions (mm) (Penicillium digitatum [3]; 0.4 mg/L, Day 3): 63.4 mm
- Sporulation (mm) (Penicillium digitatum [3]; 2 mg/L, Day 0): 0 mm
- Water soaked lesions (mm) (Penicillium digitatum [3]; 2 mg/L, Day 0): 0.5 mm
- Sporulation (mm) (Penicillium digitatum [3]; 2 mg/L, Day 1): 0.3 mm
- Water soaked lesions (mm) (Penicillium digitatum [3]; 2 mg/L, Day 1): 7.8 mm
- Sporulation (mm) (Penicillium digitatum [3]; 2 mg/L, Day 2): 2.8 mm
- Water soaked lesions (mm) (Penicillium digitatum [3]; 2 mg/L, Day 2): 30.7 mm
- Sporulation (mm) (Penicillium digitatum [3]; 2 mg/L, Day 3): 5.7 mm
- Water soaked lesions (mm) (Penicillium digitatum [3]; 2 mg/L, Day 3): 42.6 mm
- Sporulation (mm) (Penicillium digitatum [3]; 10 mg/L, Day 0): 0 mm
- Water soaked lesions (mm) (Penicillium digitatum [3]; 10 mg/L, Day 0): 0 mm
- Sporulation (mm) (Penicillium digitatum [3]; 10 mg/L, Day 1): 0 mm
- Water soaked lesions (mm) (Penicillium digitatum [3]; 10 mg/L, Day 1): 0 mm
- Sporulation (mm) (Penicillium digitatum [3]; 10 mg/L, Day 2): 0 mm
- Water soaked lesions (mm) (Penicillium digitatum [3]; 10 mg/L, Day 2): 0 mm
- Sporulation (mm) (Penicillium digitatum [3]; 10 mg/L, Day 3): 0 mm
- Water soaked lesions (mm) (Penicillium digitatum [3]; 10 mg/L, Day 3): 0.8 mm
- Sporulation (mm) (Penicillium digitatum [3]; 50 mg/L, Day 0): 0 mm
- Water soaked lesions (mm) (Penicillium digitatum [3]; 50 mg/L, Day 0): 0 mm
- Sporulation (mm) (Penicillium digitatum [3]; 50 mg/L, Day 1): 0 mm
- Water soaked lesions (mm) (Penicillium digitatum [3]; 50 mg/L, Day 1): 0 mm
- Sporulation (mm) (Penicillium digitatum [3]; 50 mg/L, Day 2): 0 mm
- Water soaked lesions (mm) (Penicillium digitatum [3]; 50 mg/L, Day 2): 0 mm
- Sporulation (mm) (Penicillium digitatum [3]; 50 mg/L, Day 3): 0 mm
- Water soaked lesions (mm) (Penicillium digitatum [3]; 50 mg/L, Day 3): 0 mm
- in vivo antimicrobial control of B. cinerea (Botrytis cinerea [4]; 1 mg/L, volatile fungicide on different hosts): 100%
- Incidence (%) (Botrytis cinerea [4]; Blueberry): 0.0%
- Severity (0-4) (Botrytis cinerea [4]; Blueberry): 0.0
- Incidence (%) (Botrytis cinerea [4]; Grape): 0.0%
- Severity (0-4) (Botrytis cinerea [4]; Grape): 0.0
- Incidence (%) (Botrytis cinerea [4]; Strawberry): 0.0%
- Severity (0-4) (Botrytis cinerea [4]; Strawberry): 0.0
- in vivo antimicrobial control of P. digitatum (Penicillium digitatum [5]; 1 mg/L, volatile fungicide): 100%
- Sporulation (mm) (Penicillium digitatum [5]; [10]): 0.0 mm
- Water soaked lesion (Penicillium digitatum [5]; [10]): 0.0 mm
- Browning (mm) (Penicillium expansum; Apple): 2.3 mm
- Sporulation (mm) (Penicillium expansum; Apple): 0.2 mm
- Browning (mm) (Penicillium expansum; Pear): 1.1 mm
- Sporulation (mm) (Penicillium expansum; Pear): 0.0 mm

SMILES: CC1=CC1 [Compound 1-MCP, 1-methylcyclopropene, reference compound]
- Incidence (%) (Botrytis cinerea [6]): 33.3%
- Severity (0-4) (Botrytis cinerea [6]): 0.4
- Color Score (Alternaria alternata [7]): 1.79
- Severity (Alternaria alternata [7]): 0.61
- Diameter of the rot (mm) (Alternaria alternata [8]): 13.6 mm
- Color Score (Alternaria alternata [9]): 1.50
- Severity (Alternaria alternata [9]): 0.18
